This assay has as its target Rat recombinant DYRK1A (Rattus norvegicus, UniProt Q63470). Description: Assaying of the kinase activity of DYRK1A (33P-ATP, myelin basic protein, P81 filter).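 Also: GST fusion rat DYRK1A made in E. coli, scintillation counting of label bound to substrate, activity as percent of the inhibitor-free maximum after blank subtraction.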 The assay is classed as biochemical.
The mark [1] stands for this setting: 15 μM ATP, 30° C., 30 min, read-out: IC50 DYRK1A.

Read-outs that look alike come from different tables or passages of the source.

The IC50 is the point on the concentration scale where inhibition reaches its midpoint.

Procedure: Rat recombinant DYRK1A was expressed in E. coli as a GST fusion protein. It was purified by affinity chromatography on beads of immobilized glutathione (elution with free glutathione). […] After incubation at 30° C. for 30 min, 25-μL aliquots of supernatant were spotted onto Whatman P81 phosphocellulose filters and the filters were washed five times in a solution of phosphoric acid (10 ml/L water). The radioactivity incorporated into the substrate, retained on the moist filters, was then counted in the presence of ACS scintillation fluid (Amersham). The control values were subtracted and the activities were expressed as % of the maximum value, i.e. the value obtained in the absence of inhibitors. The IC50 values were calculated from dose-response curves and are given in μM.

Regarding `CSC1=N/C(=C\c2ccc3c(c2)OCO3)C(=O)N1C` [ST099], the half-maximal inhibitory concentration (IC50) under setting [1] was determined as 6.8 µM.
Same read-out and setting: in the case of `CCOC(=O)CSC1=N/C(=C\c2ccc3c(c2)OCO3)C(=O)N1c1ccccc1` [JR411] it was > 10 µM.
Same read-out and setting: as for `CCCCN1C(=O)/C(=C/c2ccc3c(c2)OCO3)NC1=S` [JR361], the figure is > 10 µM; as for `CCSC1=N/C(=C\c2ccc(O)c(OC)c2)C(=O)N1` [ST240], 2.6 µM.
`COc1cc(/C=C2\NC(=S)NC2=O)cc(Br)c1O` [ST229]: under setting [1], the IC50 came to 65 µM.
Take `CCCCSC1=N/C(=C\c2ccc3c(c2)OCO3)C(=O)N1` [ST124]: under setting [1], the IC50 amounted to 0.59 µM.
As for `CCOC(=O)CSC1=N/C(=C\c2ccc3c(c2)OCO3)C(=O)N1C` [JR404], under setting [1], the IC50 was determined as 5.8 µM.
As for `CCCNC1=N/C(=C\c2ccc3c(c2)OCO3)C(=O)N1c1ccccc1` [JR445], the IC50 under setting [1] is > 10 µM.
For the compound `C#CCSC1=N/C(=C\c2ccc3c(c2)OCO3)C(=O)N1C` [SB16], the IC50 under setting [1] was found to be 0.9 µM.
Take `CN1C(=O)/C(=C/c2ccc3c(c2)OCO3)N=C1c1ccc(O)cc1` [NL96]: under setting [1], the IC50 is 0.43 µM.
With `O=C1NC(Nc2ccc(O)cc2)=N/C1=C\c1ccc2c(c1)OCO2` [MADE48], the IC50 under setting [1] came to 0.084 µM.
In the case of `CCSC1=N/C(=C\c2ccc3c(c2)OC(F)(F)O3)C(=O)N1C` [ST091], the IC50 under setting [1] is > 10 µM.
Consider `CN1C(=O)/C(=C/c2ccc3c(c2)OCO3)N=C1NCCCCCO` [MADE23], for which the IC50 (IC50 DYRK1A) was 3 µM.
Regarding `CN1C(=O)/C(=C/c2ccc3c(c2)OCO3)N=C1Nc1cccc(CO)c1` [MADE37], the IC50 under setting [1] turned out to be 0.23 µM.
With `CN1C(=O)/C(=C/c2ccc3c(c2)OCO3)N=C1NCCCO` [SA142], under setting [1], the IC50 is 1.3 µM.
On to `O=C1/C(=C/c2ccc3c(c2)OCO3)NC(=S)N1c1ccccc1` [JR370], for which the IC50 under setting [1] is > 10 µM.
For the compound `CCCCN1C(=O)/C(=C/c2ccc3c(c2)OCO3)N=C1NCCC` [JR442], the IC50 under setting [1] is > 10 µM.
On the same count and under the same terms, as for `CCCNC1=N/C(=C\c2ccc3c(c2)OCO3)C(=O)N1` [FC126], the figure is 0.89 µM; as for `CCCCN1C(=O)/C(=C/c2ccc3c(c2)OCO3)N=C1SC` [JR448], > 10 µM; as for `CCCSC1=N/C(=C\c2ccc3c(c2)OCO3)C(=O)N1C` [ST094], 1.8 µM.
As to `COCCNC1=N/C(=C\c2ccc3c(c2)OCO3)C(=O)N1C` [FC103], the IC50 under setting [1] turned out to be 1.2 µM.
Take `CN1C(=O)/C(=C/c2ccc3c(c2)OCO3)N=C1NCCO` [MADE40]: the IC50 under setting [1] turned out to be 0.73 µM.
On to `CSC1=N/C(=C\c2ccccc2)C(=O)N1C` [JR158], for which the concentration for half-maximal inhibition (IC50) under setting [1] is > 10 µM.
Still for that read-out and setting: as for `CCSC1=N/C(=C\c2cc(Br)c3c(c2)OCO3)C(=O)N1C` [ST342], the figure is > 10 µM.
The same measure, in the same setting: in the case of `CSC1=N/C(=C\c2ccc(O)cc2)C(=O)N1C` [ST078] it was 6.7 µM; in that of `N#CCSC1=N/C(=C\c2ccc3c(c2)OCO3)C(=O)N1` [ST209], 0.17 µM; in that of `O=C1NC(Nc2ccccc2)=N/C1=C\c1ccc2c(c1)OCO2` [MADE44], 0.071 µM.
`CSC1=N/C(=C\c2ccc(Br)cc2)C(=O)N1C` [JR162]: under setting [1], the IC50 is > 10 µM.
`CCSC1=N/C(=C\c2ccc(O)c(O)c2)C(=O)N1` [ST286]: the IC50 under setting [1] was > 10 µM.
In the case of `CC(C)NC1=N/C(=C\c2ccccc2)C(=O)N1C` [FC095], the IC50 under setting [1] is > 10 µM.
For the compound `C=CCSC1=N/C(=C\c2ccc3c(c2)OCO3)C(=O)N1C` [SB14], the IC50 under setting [1] amounted to 3.4 µM.
With `CN1C(=O)/C(=C/c2ccc3c(c2)OCO3)N=C1Nc1ccc(CC(=O)O)cc1` [MADE34], the IC50 under setting [1] worked out at 0.86 µM.
Regarding `O=C1NC(=S)N/C1=C\c1c[nH]c2ccccc12` [ST195], under setting [1], the IC50 was > 10 µM.
Same read-out and setting: as for `CSC1=N/C(=C\c2ccc3c(c2)OCO3)C(=O)N1` [ST105], the figure is 0.68 µM; as for `CSC1=N/C(=C\c2ccccn2)C(=O)N1C` [JR160], > 10 µM; as for `CCSC1=N/C(=C\c2ccc3c(c2)OCO3)C(=O)N1` [ST120], 0.44 µM.
Consider `CCCCN1C(=O)/C(=C/c2ccc3c(c2)OCO3)N=C1NCCCO` [SA164], for which, under setting [1], the concentration for half-maximal inhibition (IC50) is > 10 µM.
On the same count and under the same terms, as for `CCCCNC1=N/C(=C\c2ccc3c(c2)OCO3)C(=O)N1C` [FCJR457], the figure is 1.8 µM.
On the same count and under the same terms, as for `CN1C(=O)/C(=C/c2ccc3c(c2)OCO3)N=C1NCc1ccccc1` [FC097], the figure is 1.4 µM; as for `CCSC1=N/C(=C\c2cc(OC)cc(OC)c2)C(=O)N1C` [SB56], > 10 µM; as for `CCCCN1C(=O)/C(=C/c2cc3c(cc2Br)OCO3)N=C1SCC` [SB80], > 10 µM.
Still for that read-out and setting: as for `COCCSC1=N/C(=C\c2ccc3c(c2)OCO3)C(=O)N1C` [SA197], the figure is 2.5 µM; as for `CCCCNC1=N/C(=C\c2ccc3c(c2)OCO3)C(=O)N1CCCC` [FCJR464], > 10 µM.
As for `C=CC(=O)NC1=N/C(=C\c2ccc3c(c2)OCO3)C(=O)N1C` [IA32], under setting [1], the IC50 came to 15 µM.
For `CN1C(=O)/C(=C/c2cc(Br)c3c(c2)OCO3)NC1=S` [ST341], the IC50 under setting [1] is > 10 µM.
For the compound `CNC1=N/C(=C\c2ccc3c(c2)OCO3)C(=O)N1C` [FC084], the IC50 (IC50 DYRK1A) worked out at 2.7 µM.
Regarding `CCCCN1C(=O)/C(=C/c2ccc3c(c2)OCO3)N=C1SCc1ccc([N+](=O)[O-])cc1` [SB60], the IC50 under setting [1] was > 10 µM.
On the same count and under the same terms, as for `CCCNC1=N/C(=C\c2ccccc2)C(=O)N1C` [FCFD08], the figure is > 10 µM; as for `CCCCSC1=N/C(=C\c2ccc3c(c2)OCO3)C(=O)N1C` [ST101], 2.3 µM.
On to `CN1C(=O)/C(=C/c2ccc3c(c2)OCO3)N=C1SCC#N` [ST211], for which the IC50 under setting [1] turned out to be 0.47 µM.
In the case of `CC(C)NC1=N/C(=C\c2ccc3c(c2)OCO3)C(=O)N1C` [FCJR232], the IC50 (IC50 DYRK1A, 15 μM ATP, 30° C., 30 min) amounted to 1.3 µM.
For the compound `CCCCSC1=N/C(=C\c2c[nH]c3ccccc23)C(=O)N1C` [FB17], under setting [1], the IC50 was > 10 µM.
Turning to `COc1cc(/C=C2\N=C(NC(C)C)N(C)C2=O)cc(OC)c1OC` [FC104b], the IC50 under setting [1] was > 10 µM.
`CN1C(=O)/C(=C/c2ccc3c(c2)OCO3)N=C1c1ccc2c(c1)OCO2` [NL88A]: the IC50 under setting [1] amounted to 0.22 µM.
Take `CC(C)CCNC1=N/C(=C\c2ccc3c(c2)OCO3)C(=O)N1C` [ST025]: the IC50 under setting [1] was found to be 1.7 µM.
`CN1C(=O)/C(=C/c2ccc3c(c2)OCO3)NC1=S` [ST223]: the IC50 under setting [1] was > 10 µM.
Consider `CC(C)NC1=N/C(=C\c2ccccn2)C(=O)N1C` [FC109], for which, under setting [1], the IC50 was > 10 µM.
Take `O=C1NC(NCC2CC2)=N/C1=C\c1ccc2c(c1)OCO2` [FC114]: the IC50 under setting [1] turned out to be 0.5 µM.
Still for that read-out and setting: in the case of `CCCNC1=N/C(=C\c2ccc3c(c2)OCO3)C(=O)N1C` [FCJR405, (5Z)-5-Benzo[1,3]dioxol-5-ylmethylene-3-methyl-2-propylamino-3,5-dihydroimidazol-4-one] it was 2.3 µM; in that of `CN1C(=O)/C(=C/c2ccc3c(c2)OCO3)N=C1SCc1ccccc1` [SB28], 5.7 µM; in that of `COC(=O)NCCNC1=N/C(=C\c2ccc3c(c2)OCO3)C(=O)N1C` [MADE24], > 10 µM.
For `CCCNC1=N/C(=C\c2cc(OC)c(OC)c(OC)c2)C(=O)N1C` [FCFD14], under setting [1], the IC50 was > 10 µM.
Same read-out and setting: as for `CN1C(=O)/C(=C/c2ccc3c(c2)OCO3)N=C1NCc1ccc2c(c1)OCO2` [MADE12], the figure is 4.6 µM.
The same measure, in the same setting: as for `CC(O)c1cccc(NC2=N/C(=C\c3ccc4c(c3)OCO4)C(=O)N2C)c1` (racemic) [MADE36], the figure is 0.26 µM.
As to `CCNC1=N/C(=C\c2ccc3c(c2)OCO3)C(=O)N1C` [FC088], under setting [1], the IC50 came to 0.9 µM.
For `CN1C(=O)/C(=C/c2ccc3c(c2)OCO3)N=C1NCC1CC1` [FC107], the IC50 under setting [1] turned out to be 0.98 µM.
`CCSC1=N/C(=C\c2c[nH]c3ccccc23)C(=O)N1C` [FB08]: under setting [1], the IC50 was > 10 µM.
For `CN1C(=O)/C(=C/c2ccc3c(c2)OCO3)N=C1Nc1ccc(O)cc1` [MADE8], under setting [1], the IC50 amounted to 0.38 µM.
With `CN1C(=O)/C(=C/c2ccc3c(c2)OCO3)N=C1NCC(O)CO` (centres unmarked) [MADE47], the IC50 under setting [1] is 0.79 µM.
Regarding `CN1C(=O)/C(=C/c2ccc3c(c2)OCO3)N=C1SCC1CC1` [ST102], the IC50 under setting [1] was found to be 1.5 µM.
As to `CCCSC1=N/C(=C\c2ccc3c(c2)OCO3)C(=O)N1` [ST122], under setting [1], the IC50 is 0.44 µM.
The same measure, in the same setting: as for `CCSC1=N/C(=C\c2ccc(O)c(OC)c2)C(=O)N1C` [ST170], the figure is > 10 µM; as for `COC(CNC1=N/C(=C\c2ccc3c(c2)OCO3)C(=O)N1C)OC` [MADE10], 1.4 µM.
Same read-out and setting: in the case of `CN1C(=O)/C(=C/c2ccc3c(c2)OCO3)N=C1Nc1ccccc1` [MADE42] it was 0.43 µM.
Take `C=CCSC1=N/C(=C\c2ccc3c(c2)OCO3)C(=O)N1CCCC` [SB25]: under setting [1], the IC50 was > 10 µM.
As for `CN1C(=O)C(=Cc2c[nH]c3ccccc23)NC1=S` [ST197], the IC50 under setting [1] is > 10 µM.
As for `CNC1=N/C(=C\c2ccc3c(c2)OCO3)C(=O)N1` [FC085], under setting [1], the concentration for half-maximal inhibition (IC50) is 1.7 µM.
The same measure, in the same setting: in the case of `CCNC1=N/C(=C\c2ccc3c(c2)OCO3)C(=O)N1` [FC090, (5Z)-5-Benzo[1,3]dioxol-5-ylmethylene-2-ethylamino-3,5-dihydro-4H-imidazol-4-one] it was 1.1 µM.
`CCSC1=N/C(=C\c2cc(Br)c3c(c2)OCO3)C(=O)N1` [ST280]: the IC50 under setting [1] was > 10 µM.
Take `C=CCNC1=N/C(=C\c2ccc3c(c2)OCO3)C(=O)N1C` [FCFD13]: the IC50 under setting [1] turned out to be 1.6 µM.
As for `CN1C(=O)/C(=C/c2ccc3c(c2)OCO3)N=C1Nc1ccccc1` [MADE32], the IC50 under setting [1] worked out at 0.4 µM.
In the case of `CCCSC1=N/C(=C\c2c[nH]c3ccccc23)C(=O)N1C` [FB14], the IC50 under setting [1] was > 10 µM.
On the same count and under the same terms, as for `CN1C(=O)/C(=C/c2ccc3c(c2)OCO3)N=C1Nc1ccccc1O` [MADE9], the figure is 0.69 µM; as for `CCCNC1=N/C(=C\c2ccc3c(c2)OC(F)(F)O3)C(=O)N1C` [ST092], > 10 µM.
As to `O=C1NC(SCC2CCC2)=N/C1=C\c1ccc2c(c1)OCO2` [ST142], under setting [1], the half-inhibitory concentration (IC50) came to 0.78 µM.
For the compound `CC(C)SC1=N/C(=C\c2ccc3c(c2)OCO3)C(=O)N1` [ST135], under setting [1], the IC50 stood at 0.46 µM.
Take `CCCCN1C(=O)/C(=C/c2ccc(OC)c(OC)c2)N=C1SCC` [SB58]: the IC50 under setting [1] was > 10 µM.
Same read-out and setting: as for `CN1C(=O)/C(=C/c2ccc3c(c2)OCO3)N=C1Nc1ccc2c(c1)OCO2` [MADE30], the figure is 0.37 µM; as for `COc1cc(/C=C2\N=C(N)NC2=O)ccc1O` [ST325], 0.17 µM.

For the origin of these results see patent US8563588B2, “Imidazolone derivatives, method for the preparation thereof and biological applications” (Universite de Rennes 1, priority 2007, dated 2013).
